Results on one molecule are retold here after patent US11504075B2, “System, methods, and devices for calculating hypoxic fraction and equilibration rate of small molecular weight tracers using dynamic imaging” (UNIVERSITY HEALTH NETWORK, priority 2017, dated 2022).

In data set [1] the test system is pancreatic ductal adenocarcinoma tumours. Description: Dynamic FAZA-PET imaging with two-tissue compartment model analysis in patients with pancreatic ductal adenocarcinoma. The class given is in vivo, human (patients). The source says:
In an example experiment, the pharmacokinetics of FAZA in twenty patients with pancreatic ductal adenocarcinoma (PDAC) were modeled, applying principles of diffusive equilibration to interpret transport data calculated from a standard two-tissue compartment model.
Data was taken from twenty patients with biopsy-confirmed pancreatic ductal adenocarcinoma and FAZA-PET scans. Dynamic PET imaging scans were acquired over one hour following injection of FAZA. The one hour time-activity curves (TAC1) were each binned into thirty-four frames: twelve ten-second frames, followed by eight thirty-second frames, followed by seven two-minute frames, followed by seven five-minute frames. Patients returned for a static PET scan at two hours. CT scans used for co-registration were taken at the beginning of the dynamic and static PET scans.
PET activity data was obtained for regions of interest (ROIs) contoured using co-registered CT images. Tumour ROIs were contoured by a radiologist using the CT scan at two hours. This was co-registered manually to the initial CT scan and the two CT ROI sets were co-registered to the dynamic and static PET scans. In order to minimize effects resulting from high liver uptake of FAZA, aorta ROIs were contoured from the same range of PET/CT slices (along the cranial-caudal axis) as the tumour ROIs. At the level of the pancreas, the aorta is between 1.5 and 2 cm in diameter; to minimize partial volume effects, ROIs in the aorta were restricted to 0.75 cm in diameter and combined so that at least twenty-five PET voxels (3.9×3.9×3.3 mm^3 each) were imaged.
Dynamic PET TACs of FAZA were analyzed using the two-tissue compartment model:
Here, the concentration of tracer in the extravascular space of an imaged region has been partitioned into an unbound, diffusing component Cd as well as a component Cb that is bound by hypoxia. CIn is the “input” function, which was taken to be the imaged tracer concentration in the aorta, as described above. As noted earlier, k1 and k2 are the vascular influx and efflux coefficients and k3 is the tracer trapping rate. The total tracer concentration in an imaged region is C(t)=vbCIn(t)+(1−vb)[Cd(t)+Cb(t)], (5) where vb is the volume fraction occupied by blood in the region of interest. The above model was fitted to both the one-hour TACs (TAC1) as well as the combined two-hour TAC (TAC2) comprising the one-hour TACs plus static scans at two hours (in part to assess co-registration errors, which should be greater for TAC2). Coefficients (vb, k1, k2, and k3) were determined by minimizing
[formula] where Cmodel(ti) are the model activity values [Eqs. (3)-(5)] and Cdata(ti) are the measured values acquired during the N discrete time frames; N=34 for TAC1 and N=35 for TAC2. […] Equation 6 can be minimized with Cmodel(ti) calculated using trapezoidal integration.
An important tissue transport quantity is the distribution volume:
It represents the volume fraction of an imaged ROI in which tracer initially fills; i.e., rapidly equilibrates in. Patlak's formula,
To account for the unexpected correlations between k3 and vd, a model (shown schematically in FIG. 23) may be used in which an imaged voxel is comprised of two tissue types: one in which tracer reaches diffusive equilibration rapidly (with concentration C^(r)), and one in which it reaches equilibrium slowly (with concentration C^(s)): Cd(t)=vsCd^(s)+(1−vs)Cd^(r)(t). (11)
The factors of 1−vs and vs here ensure detailed balance amongst the compartments. kb is the binding rate due to hypoxia and keq represents the equilibration rate in the regions of slow-equilibration. This may be on the order of (0.1→1) hr-^1 when equilibration is driven by diffusion; see Eq. (2).
To distinguish kb and Keq in k3, voxel-scale k3 values were arranged into bins based on distribution volume values. […]

The conditions of data set [2]: in most tissue; FAZA and similarly sized molecules; cited from earlier work.

Values joined by “and” are separate entries in the source; they are usually repeats but may differ in a detail not shown here. Equal values may be shown once.

Regarding `O=[N+]([O-])c1nccn1[C@H]1O[C@H](CF)[C@@H](O)[C@@H]1O` [FAZA, fluoroazomycinarabinoside], in data set [1] (all twenty patients, standard deviation 0.29 hrs^−1 across patients), the “mean (population-averaged) equilibration rate keq in slow-equilibrating regions” value is 0.44 h⁻¹ and ~0.44 ± 0.29 h⁻¹. Further, the equilibration rate keq was 0.45 h⁻¹ in data set [1] (patient 1, fit of voxel-scale Keq to Eq. (18)) and 0.52 h⁻¹ in data set [1] (patient 2, fit of voxel-scale Keq to Eq. (18)). Moreover, the “average distribution volume of tumour” value is 0.76 in data set [1] (resected tumour exhibiting abundant apical mucin (FIG. 12 right)) and 0.92 in data set [1] (resected tumour exhibiting little mucin (FIG. 12 left)). For the same molecule, the “vascular influx rate k1, population average of tumour-scale values” in data set [1] (twenty PDAC patients) was roughly 0.3 min⁻¹. The “diffusivity D” value in data set [2] is roughly 10 μm^2/s.
